Article doi:10.1101/2025.07.30.667614, “Steric control of signaling bias in the immunometabolic receptor GPR84” (bioRxiv, 2025)
Read-outs that look alike come from different tables or passages of the source.

Columns and labels:
GPR84 F187A = target: T1, GPR84 F187A (Homo sapiens, UniProt Q9NQS5, F187A); experiment: BRET β-arrestin-1 recruitment assay, HEK293T cells; type: cell-based; conditions: for EC50: F187A, read-out: β-arrestin-1 pEC50 ± SEM (converted)
T1 construct: FLAG (N); eYFP (C); expressed in transfected cells; host or cells: HEK293T, transient
Method: (§1) As a control, cells were transfected with 100:1 ratio of empty plasmid and the appropriate arrestin isoform fused to nano-luciferase. After 24 h, cells were seeded at 50,000 cells per well in poly-D-lysine-coated white 96-well plates and incubated at 37°C overnight. After 24 h, cells were washed twice with Hank’s balanced salt solution (HBSS), pH 7.4, and 10 μl/well of the nano-luciferase substrate coelenterazine-h (Nanolight Technologies) was added to a final concentration of 5 μM. Cells were incubated in the dark for 10 min at 37°C, after which 10 μl/well of the agonist compound was added, and the cells were incubated for another 5 minutes. 15 min after coelenterazine-h addition, reading of emission signals were performed on a PHERAstar FS plate reader (BMG Labtech) at 475 and 535 nm, representing nano-luciferase and eYFP emission signals, respectively. The net bioluminescence resonance energy transfer (BRET) ratio (mBRET) was calculated as follows: mBRET=(BRET^sample−BRET^control)*1000whereBRET=Emission^535nm/Emission^475nm

GPR84 L336A = target: T2, GPR84 L336A (Homo sapiens, UniProt Q9NQS5, L336A); experiment: BRET β-arrestin-1 recruitment assay, HEK293T cells; type: cell-based; conditions: for EC50: L336A, read-out: β-arrestin-1 pEC50 ± SEM (converted)
T2 construct: FLAG (N); eYFP (C); expressed in transfected cells; host or cells: HEK293T, transient
Method: as §1

GPR84 S331A = target: T3, GPR84 S331A (Homo sapiens, UniProt Q9NQS5, S331A); experiment: BRET β-arrestin-1 recruitment assay, HEK293T cells; type: cell-based; conditions: for Emax: HEK-293T
T3 construct: FLAG (N); eYFP (C); expressed in transfected cells; host or cells: HEK293T, transient
Method: as §1

GPR84-WT = target: T4, GPR84-WT (Homo sapiens, UniProt Q9NQS5); experiment: BRET β-arrestin-1 recruitment assay, HEK293T cells; type: cell-based; conditions: for Emax: HEK-293T
T4 construct: FLAG (N); eYFP (C); expressed in transfected cells; host or cells: HEK293T, transient
Method: as §1

[1] = target: Leu336Ala GPR84 (GPR84-Gi2 fusion protein) (Homo sapiens, UniProt Q9NQS5, L336A); experiment: Competition binding assay with orthosteric antagonist [3H]140
Method: Binding was initiated by the addition of 5 μg membrane protein generated from Flp-In™ T-REx™ cells induced to express the receptor construct of interest with 100 ng/ml doxycycline. Nonspecific binding of the radioligand was determined in the presence of 10 μM compound 837. All assays were performed at 25 °C for 1 h before termination by the addition of ice-cold phosphate-buffered saline (PBS) and vacuum filtration through GF/C glassfibre filter-bottom 96-well microplates using a UniFilter FilterMate Harvester (Revvity). Each well was washed three times with ice-cold PBS and filters were allowed to dry for 2–3 h before addition of 50 μl of Ultima Gold™ XR. Radioactivity was quantified by liquid scintillation spectrometry.

Leu336Ala GPR84 = target: T5, Leu336Ala GPR84 (Homo sapiens, UniProt Q9NQS5, L336A); experiment: pThr263/pThr264 immunoblot of immunoprecipitated GPR84-eYFP; type: cell-based; conditions: 1 μM
T5 construct: expressed in transfected cells
Method: (§2) eYFP-linked receptor constructs were immunoprecipitated from 200 μl cell lysates using GFP-Trap® agarose beads (Proteintech) according to manufacturer’s instructions. Immunocomplexes were washed three times in washing buffer, resuspended in 100 μl 2 × SDS-PAGE sample buffer and incubated at 60 °C for 10 min. Following centrifugation at 2500g for 5 min, 20 μl of immunoprecipitated proteins was resolved by SDS-PAGE on 4% to 12% BisTris gels. After separation, the proteins were transferred electrophoretically onto nitrocellulose membrane, which was then blocked using 5% bovine serum albumin (BSA) in Tris-buffered saline (TBS, 50 mM Tris-Cl, 150 mM NaCl, pH 7.6) for 1 h at room temperature on an orbital shaker. The membrane was then incubated with appropriate primary antibody in 5% BSA in TBS supplemented with 0.1% Tween (TBS-T) overnight at 4 °C. Anti-pThr^263/pThr^264 antiserum was diluted 1:2000 and anti-GFP was diluted 1:10,000. Subsequently, the membrane was washed (3 × 10 min with TBS-T) and incubated for 2 h with anti-rabbit secondary antibody diluted 1:10,000 in 5% BSA in TBS-T. After washing (3 × 10 min with TBS-T), proteins were detected using an Odyssey imaging system (Licor) according to the manufacturer’s instructions.

Phe187Ala GPR84 = target: T6, Phe187Ala GPR84 (Homo sapiens, UniProt Q9NQS5, F187A); experiment: as above; type: cell-based; conditions: 1 μM, compared to OX04954 and OX04539
T6 construct: expressed in transfected cells
Method: as §2

[2] = pKa measurement (Sirius T3 UV-metric and pH-metric titration); type: physicochemical; conditions: 25 °C, ionic strength 0.15 M; read-out: measured pKa of the hydroxyl group
Method: OX04529 pKa was determined using a UV-metric titration method on a Sirius T3 with a combination Ag/AgCl pH electrode. 5 μL of OX04529 stock solution was added to 25 μL of a neutral linear buffer. The sample was then pre-acidified to pH < 2.0 using 0.5 M HCl and titrated three times until pH > 12.0 using 0.5 M KOH. Titrations were carried out at a constant ionic strength of 0.15 M (adjusted with KCl) and maintained at 25.0 ±0.5 °C. UV absorbance data across varying wavelengths and pH values were recorded. Molar absorption profiles and species distribution plots were generated in the Sirius T3 software, from which apparent pKa value was calculated.
OX04529 pKa was measured using pH-metric titration on the Sirius T3 system. The solution was pre-acidified to pH < 3.0 with 0.5 M HCl and titrated three times until pH > 11.0 using 0.5 M KOH.

GPR84 = GPR84 (Homo sapiens, UniProt Q9NQS5); experiment: Competition binding kinetics of [3H]140 (on and off rates of unlabeled ligands); parameters: expressed in transfected cells; host or cells: membranes; conditions: for Kd: read-out: Koff/Kon
Method: The kinetic binding parameters of unlabeled ligands were determined through assessment of the binding kinetics of [^3H]140.[21] […] At the indicated time points, membrane protein was added, and tubes were gently agitated. Three different concentrations of competitor were assessed to ensure that the rate parameters calculated were independent of ligand concentration.

GPR84 Y332F = target: T7, GPR84 Y332F (Homo sapiens, UniProt Q9NQS5, Y332F); experiment: BRET β-arrestin-1 recruitment assay, HEK293T cells; type: cell-based
T7 construct: FLAG (N); Gαi2-Cys352Ile (fusion partner) (C); expressed in transfected cells
Method: as §1

[3] = Extended Data Table 4, read-out: β-arrestin-1 pEC50 ± SEM (converted)
[4] = β-arrestin-1 recruitment, Extended Data Table 6

| SMILES | EC50 (GPR84 F187A) | EC50 (GPR84 L336A) | EC50 (GPR84 S331A) | Emax (GPR84 S331A) | EC50 (GPR84-WT; [3]) | Emax (GPR84-WT; [4]) | Kd (GPR84; Fig. 1g) | further results |
| --- | --- | --- | --- | --- | --- | --- | --- | --- |
| [O-][n+]1cc(O)cc(CCc2ccc(Cl)c(C(F)(F)F)c2)c1 [OX04529] | 3.8 nM | 1.86 nM | 28.8 nM | 24 ± 6% | 49 nM | 18 ± 4% | 1.54 ± 0.2 nM | efficacy in promoting interaction with β-arrestin-1 (GPR84 F187A; Phe187Ala GPR84, HEK293T): substantial efficacy; efficacy in promoting interaction with β-arrestin-1 (GPR84 L336A; Leu336Ala GPR84, HEK293T): full agonist; pEC50 ± SEM (GPR84-WT; [4]): 7.10 ± 10.11; Ki [1]: 1.51 nM; phosphorylation of Thr263 and Thr264 (immunoblot) (Leu336Ala GPR84): full agonist; phosphorylation of Thr263 and Thr264 (immunoblot) (Phe187Ala GPR84): partial effect; pKa [2]: 6.26; koff (GPR84): 0.000649 s⁻¹; kon (GPR84): 443000 M⁻¹ s⁻¹ |
| Cc1cc(CCCc2cc(O)c[n+]([O-])c2)ccc1Cl [OX04954] | 5.75 nM | 2.14 nM | 30.9 nM | 66 ± 7% | 39.8 nM | 71 ± 4% | 1.83 ± 0.31 nM | EC50 (GPR84 Y332F): 50.1 nM; Emax (GPR84 Y332F; HEK-293T): 40 ± 4%; EC50 (GPR84-WT; β-arrestin-1 recruitment, Extended Data Table 6, read-out: pEC50 ± SEM (converted)): 31.6 nM; koff (GPR84; Fig. 1g, read-out: Koff (converted)): 0.000429 s⁻¹; kon (GPR84; Fig. 1g, read-out: Kon (converted)): 254000 M⁻¹ s⁻¹ |
